Results published in article PMC10517971, “An inverse agonist of orphan receptor GPR61 acts by a G protein-competitive allosteric mechanism” (Nature Communications, 2023).

Legend:
Human PDE4D3 = Human PDE4D3 (Homo sapiens, UniProt Q08499); experiment: Phosphodiesterase Assay (SPA); format: biochemical
Experimental: (§1) 45 37 °C for 30 min (DAT) or 60 min (NET and SER T). The plate is transferred to the FLIPR Tetra®
(§2) 46 instrument and the fluorescence of each well was measured (Ex 470- 495 […]).
(§3) 47 The level of fluores cenc e measured dire ctly relates to the level of uptake of the dye labelled amine,
(§4) 48 with a reduction in levels being related to an inhibition of the respective transporter.
(§5) 49 Phosphodiesterase Assays
(§6) 50 The phosphodiesteras e (P DE) assays m easure the conversion of 3’, 5 ’ -[3H ] cAMP to 5’-[3H] AMP
(§7) 51 (for PDE 3A1 and 4D3) or 3’, 5’-[3H] cGMP to 5’-[3H] GMP (for 5A1) by the relevant PDE
(§8) 52 enzyme subtype. Yttrium silicate (YSi) scintillation proximity (SPA) beads bind selectively to 5’-
(§9) 53 [3H] AMP or 5’-[3H] GMP, with the magnitude of radioactive counts being directly related to
(§10) 54 PDE enzymatic activity. The ass ay was performed in white walled op aque b ottom 384-well plates.
(§11) 55 Test compound (1 µL) in dimethyl sulfoxide was added to each well. Enzyme solution was then
(§12) 56 added to each well in buffer (in mM: Trizma, 50 (pH7.5); MgCl2, 1.3 mM) containing Brij 35
(§13) 57 (0.01% (v/v)). Subsequently, 20 µL of 3’,5’-[3H] cGMP (125 nM) or 20 µL of 3’,5’-[3H] cAMP
(§14) 58 (50 nM) was added to each well to start the reaction and the plate was incubated for 30 min at
(§15) 59 25 °C. The reaction was terminated by the addition of 20 µL of PDE YSi SPA beads (Perkin Elmer,
(§16) 60 Waltham, MA). Followin g an additional 8 h incubation period the plates were read on a MicroBeta
(§17) 61 radioactive plat e counter (Perkin Elmer, Waltham, MA, USA) to determine radioactive counts per
(§18) 63 Bromodomain-Containing Protein 4 (BRD4) Binding Assay
(§19) 64 The BRD4 fluorescent polarization binding assay uses purified His-tagged BRD4 protein and its
(§20) 65 interaction with a Cy5 labelled small molecule probe that binds to the BRD4 site involved in the
(§21) 66 interaction with tetra-acetylated histone H4 peptide. In brief, the assay is performed in low volume

Human PDE3A1 = Human PDE3A1 (Homo sapiens, UniProt Q14432); experiment: Phosphodiesterase Assay (SPA); format: biochemical
Experimental: as §1, §2, §3, §4, §5, §6, §7, §8, §9, §10, §11, §12, §13, §14, §15, §16, §17, §18, §19, §20, §21

Human PDE5A1 = Human PDE5A1 (Homo sapiens, UniProt O76074); experiment: Phosphodiesterase Assay (SPA); format: biochemical
Experimental: as §1, §2, §3, §4, §5, §6, §7, §8, §9, §10, §11, §12, §13, §14, §15, §16, §17, §18, §19, §20, §21

Human PED9A1 = Human PED9A1 (Homo sapiens, UniProt O76083); experiment: Phosphodiesterase Assay (SPA); format: biochemical
Human PDE7B = Human PDE7B (Homo sapiens, UniProt Q9NP56); experiment: Phosphodiesterase Assay (SPA); format: biochemical
Cav1.2 = Cav1.2 (Homo sapiens, UniProt Q13936); experiment: cell-based
From the text: 105 hERG, Nav1.5 and Cav1.2 Ion Channel Profiling
106 Ionic curr ents wer e evalu ated in the whole-cell con figuration using the Qube384 automated planar
107 patch clamp platform (Sophion Bioscience A/S, Ballerup, Denmark). […]
113 experiments, the ext ernal solution was composed of (in mM): 137.9 NaCl, 5.3 KCl, 0.49 MgCl2,
115 mOsM. The internal solution contained (in mM ): 27 CF, 112 CsCl, 2 MgCl2, 10 EGTA, 10
116 HEPES, 2 Na2ATP, pH 7.2, 305 mOsM. […]
123 at a rate of 0.05 Hz. Peak hERG current was measured during the ramp. The Cav1.2 current was
124 elicited by a voltage step to 0 mV for 150 ms from a holding potential of -40 mV. Voltage steps
125 were repeated at 0.05 Hz, and Cav1.2 amplitude was measured as the peak current at 0 mV. For
126 Nav1.5 current, from a holding potential of - 80 mV, a 200 ms prepulse to - 120 mV was used to
127 homogenize channel inactivation, followed by a 40 ms step to a test potential of - 15 mV.
128 Membrane potential was further depolarized to +40 mV for 200 ms to completely inactivate the
129 peak Nav1.5 current, followed by a ramp from +40 mV to - 80 mV (-1.2 mV/ms). This voltage
130 pattern was repeated at 0.1 Hz, with peak Nav1.5 defined as the maximum current during the step
131 to - 15 mV. All studies were conducted at 23° C.
132 Compounds were dissol ved and initially diluted in dimethyl sulfoxide (DMSO), with a final
133 dilution in external solution to generate final working concent rations. The final DMSO
134 concentration in all experiments was 0.33% (v/v).
135 For all protocols three vehicle periods each lasting 5 minutes were applied to establish a stable
136 baseline. For the standard protocol this was followed by the addition of increasing concentrations
137 of test compound, with each exposure lasting 5 minutes. For the “extended” protocol following
138 the three- vehi cle additional each well subsequentl y received a single concentration of compound.
139 This application was repeated three times for each well, via a flowthrough addition where the
140 solution was replaced wi th the same compound concentration with each addition. Each exposure
142 Patch clamp data were analyzed using Assay Software 6.4.72 (Sophion Bioscience A/S, Ballerup,
143 Denmark). Current amplitudes were determined by averaging the last 4 currents under each test
144 condition. The percentage inhibition of each compound was determined by taking the ratio of
145 current amplitude measured in the presence of various concentrations of the test compound
146 (ICompound) versus the vehicle control current (IVehicle):
148 A dose-response curve was generat ed and fit to the Hill equation by the Sophion Analyzer software
149 to determine an IC50 value for each compound. The minimum and the slope of the fit were free
150 fitted, with the top being fixed to 100% inhibition. […]

Sequence of Cav1.2 (Q13936 whole entry): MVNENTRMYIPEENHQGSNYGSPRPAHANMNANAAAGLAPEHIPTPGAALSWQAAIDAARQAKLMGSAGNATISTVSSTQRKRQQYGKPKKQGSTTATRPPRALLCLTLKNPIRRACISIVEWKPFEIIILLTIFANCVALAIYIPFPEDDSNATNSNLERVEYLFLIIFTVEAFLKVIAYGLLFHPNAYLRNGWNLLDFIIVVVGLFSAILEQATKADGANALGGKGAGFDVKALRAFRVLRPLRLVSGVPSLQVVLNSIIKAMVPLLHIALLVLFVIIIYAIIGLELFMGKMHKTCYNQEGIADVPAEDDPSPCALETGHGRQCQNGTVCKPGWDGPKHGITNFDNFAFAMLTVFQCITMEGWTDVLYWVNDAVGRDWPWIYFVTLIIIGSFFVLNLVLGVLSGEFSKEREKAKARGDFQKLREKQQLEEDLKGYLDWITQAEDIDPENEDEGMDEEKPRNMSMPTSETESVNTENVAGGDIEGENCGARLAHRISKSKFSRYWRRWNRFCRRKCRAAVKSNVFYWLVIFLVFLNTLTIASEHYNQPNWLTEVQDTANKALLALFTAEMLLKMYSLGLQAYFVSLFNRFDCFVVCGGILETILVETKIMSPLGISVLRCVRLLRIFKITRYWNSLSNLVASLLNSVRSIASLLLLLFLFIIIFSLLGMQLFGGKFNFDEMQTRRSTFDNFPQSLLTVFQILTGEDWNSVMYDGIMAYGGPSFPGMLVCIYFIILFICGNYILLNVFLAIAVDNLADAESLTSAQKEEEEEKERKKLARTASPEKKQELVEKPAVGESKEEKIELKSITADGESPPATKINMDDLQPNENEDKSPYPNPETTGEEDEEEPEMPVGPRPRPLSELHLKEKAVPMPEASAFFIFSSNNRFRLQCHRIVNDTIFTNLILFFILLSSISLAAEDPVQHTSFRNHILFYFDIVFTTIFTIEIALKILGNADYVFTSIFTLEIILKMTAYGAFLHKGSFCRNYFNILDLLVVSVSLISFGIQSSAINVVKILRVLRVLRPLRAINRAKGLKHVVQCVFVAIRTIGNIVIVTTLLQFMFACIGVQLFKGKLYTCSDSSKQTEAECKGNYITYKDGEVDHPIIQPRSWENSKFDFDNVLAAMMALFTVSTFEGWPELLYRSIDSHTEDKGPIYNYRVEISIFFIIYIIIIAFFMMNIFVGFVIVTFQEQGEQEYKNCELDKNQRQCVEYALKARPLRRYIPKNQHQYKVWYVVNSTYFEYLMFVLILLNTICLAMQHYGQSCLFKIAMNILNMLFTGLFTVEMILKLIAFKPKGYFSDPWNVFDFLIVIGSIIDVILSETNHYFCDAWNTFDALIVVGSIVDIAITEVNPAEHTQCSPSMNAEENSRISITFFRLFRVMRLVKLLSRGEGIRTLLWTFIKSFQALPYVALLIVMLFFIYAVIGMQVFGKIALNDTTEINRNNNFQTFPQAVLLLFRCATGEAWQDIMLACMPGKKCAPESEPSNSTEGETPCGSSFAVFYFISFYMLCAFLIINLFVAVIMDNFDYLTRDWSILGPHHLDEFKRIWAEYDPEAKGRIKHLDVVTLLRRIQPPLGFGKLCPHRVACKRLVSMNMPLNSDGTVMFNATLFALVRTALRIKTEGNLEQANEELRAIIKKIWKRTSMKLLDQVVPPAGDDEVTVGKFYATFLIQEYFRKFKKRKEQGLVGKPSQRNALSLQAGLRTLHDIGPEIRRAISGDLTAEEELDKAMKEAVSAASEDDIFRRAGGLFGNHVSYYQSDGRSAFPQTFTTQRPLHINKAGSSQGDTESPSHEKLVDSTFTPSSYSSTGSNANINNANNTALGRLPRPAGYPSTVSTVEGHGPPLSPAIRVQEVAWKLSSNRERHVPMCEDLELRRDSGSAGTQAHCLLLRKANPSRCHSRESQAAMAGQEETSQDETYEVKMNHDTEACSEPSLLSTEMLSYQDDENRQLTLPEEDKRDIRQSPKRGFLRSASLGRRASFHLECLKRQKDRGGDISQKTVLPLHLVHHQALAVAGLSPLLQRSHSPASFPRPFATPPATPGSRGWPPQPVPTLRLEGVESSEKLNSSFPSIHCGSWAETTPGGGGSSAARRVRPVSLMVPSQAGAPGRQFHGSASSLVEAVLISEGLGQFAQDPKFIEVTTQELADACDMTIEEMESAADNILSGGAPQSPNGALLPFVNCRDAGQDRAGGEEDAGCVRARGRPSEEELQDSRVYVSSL
Sequence of Cav1.2 (Q08289 whole entry partner): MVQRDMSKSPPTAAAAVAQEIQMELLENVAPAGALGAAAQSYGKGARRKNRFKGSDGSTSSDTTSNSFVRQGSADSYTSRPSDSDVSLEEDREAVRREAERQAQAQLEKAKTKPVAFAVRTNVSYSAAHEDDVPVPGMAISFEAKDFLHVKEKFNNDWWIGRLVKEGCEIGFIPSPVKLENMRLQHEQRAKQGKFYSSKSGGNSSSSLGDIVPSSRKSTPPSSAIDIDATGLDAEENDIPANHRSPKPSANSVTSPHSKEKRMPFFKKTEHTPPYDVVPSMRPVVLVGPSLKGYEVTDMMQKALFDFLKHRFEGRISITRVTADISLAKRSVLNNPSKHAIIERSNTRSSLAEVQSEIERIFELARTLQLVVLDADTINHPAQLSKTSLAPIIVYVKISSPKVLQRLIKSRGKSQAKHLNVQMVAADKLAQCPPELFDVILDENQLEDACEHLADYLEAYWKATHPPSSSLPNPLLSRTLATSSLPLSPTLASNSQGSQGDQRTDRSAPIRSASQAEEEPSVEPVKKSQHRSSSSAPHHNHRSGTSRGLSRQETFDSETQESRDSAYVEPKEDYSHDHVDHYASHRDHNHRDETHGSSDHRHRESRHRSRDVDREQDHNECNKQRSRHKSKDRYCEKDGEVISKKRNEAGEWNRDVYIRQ
Sequence of Cav1.2 (P54289 25-956 partner limits assumed): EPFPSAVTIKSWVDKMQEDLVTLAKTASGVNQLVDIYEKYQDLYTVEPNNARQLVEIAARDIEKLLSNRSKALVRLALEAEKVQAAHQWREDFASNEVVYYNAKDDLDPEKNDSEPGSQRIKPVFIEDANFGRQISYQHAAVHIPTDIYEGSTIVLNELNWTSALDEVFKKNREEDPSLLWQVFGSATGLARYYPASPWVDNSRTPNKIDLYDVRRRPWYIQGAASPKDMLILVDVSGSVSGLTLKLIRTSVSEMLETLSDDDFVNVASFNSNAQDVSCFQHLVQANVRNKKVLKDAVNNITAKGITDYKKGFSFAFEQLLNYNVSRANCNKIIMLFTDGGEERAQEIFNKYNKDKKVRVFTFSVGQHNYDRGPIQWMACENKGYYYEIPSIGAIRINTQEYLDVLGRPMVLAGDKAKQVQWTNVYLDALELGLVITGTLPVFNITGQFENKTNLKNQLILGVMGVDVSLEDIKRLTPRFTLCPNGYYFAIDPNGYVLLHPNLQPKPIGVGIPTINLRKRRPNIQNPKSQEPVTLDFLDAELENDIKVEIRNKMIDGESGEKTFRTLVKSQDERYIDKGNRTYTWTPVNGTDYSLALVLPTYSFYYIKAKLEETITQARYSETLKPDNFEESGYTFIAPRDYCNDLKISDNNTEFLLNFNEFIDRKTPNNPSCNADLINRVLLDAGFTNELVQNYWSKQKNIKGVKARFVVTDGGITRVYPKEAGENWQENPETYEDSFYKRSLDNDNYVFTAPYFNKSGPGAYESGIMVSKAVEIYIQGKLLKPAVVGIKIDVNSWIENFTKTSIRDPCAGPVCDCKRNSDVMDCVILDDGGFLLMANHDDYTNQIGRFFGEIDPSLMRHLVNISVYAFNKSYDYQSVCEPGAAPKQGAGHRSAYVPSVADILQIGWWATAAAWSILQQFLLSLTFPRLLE
Sequence of Cav1.2 (P54289 957-1103 partner limits assumed): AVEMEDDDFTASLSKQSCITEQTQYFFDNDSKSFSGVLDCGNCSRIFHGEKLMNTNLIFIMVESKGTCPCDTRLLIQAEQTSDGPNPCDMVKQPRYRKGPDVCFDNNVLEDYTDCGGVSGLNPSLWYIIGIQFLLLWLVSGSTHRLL
Sequence of Human PDE4D3 (Q08499 1-673 isoform Q08499-2): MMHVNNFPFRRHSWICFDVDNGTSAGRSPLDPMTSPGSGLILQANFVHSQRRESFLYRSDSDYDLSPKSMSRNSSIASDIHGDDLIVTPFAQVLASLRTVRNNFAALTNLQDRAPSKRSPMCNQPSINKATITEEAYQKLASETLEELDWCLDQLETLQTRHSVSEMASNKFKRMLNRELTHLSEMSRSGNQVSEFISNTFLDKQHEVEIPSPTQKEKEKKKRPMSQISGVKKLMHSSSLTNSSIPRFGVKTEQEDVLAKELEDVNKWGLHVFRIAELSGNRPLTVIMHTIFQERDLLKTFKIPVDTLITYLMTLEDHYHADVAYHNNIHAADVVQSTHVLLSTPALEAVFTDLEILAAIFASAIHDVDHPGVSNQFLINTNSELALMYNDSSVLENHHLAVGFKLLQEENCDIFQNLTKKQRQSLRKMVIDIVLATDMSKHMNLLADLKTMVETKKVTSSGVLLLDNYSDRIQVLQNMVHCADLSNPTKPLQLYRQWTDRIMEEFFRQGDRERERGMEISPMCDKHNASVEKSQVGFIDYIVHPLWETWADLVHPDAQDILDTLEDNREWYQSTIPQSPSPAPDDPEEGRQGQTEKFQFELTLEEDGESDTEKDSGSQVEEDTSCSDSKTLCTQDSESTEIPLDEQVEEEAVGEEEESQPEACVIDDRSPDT
Sequence of Human PDE7B (Q9NP56 whole entry): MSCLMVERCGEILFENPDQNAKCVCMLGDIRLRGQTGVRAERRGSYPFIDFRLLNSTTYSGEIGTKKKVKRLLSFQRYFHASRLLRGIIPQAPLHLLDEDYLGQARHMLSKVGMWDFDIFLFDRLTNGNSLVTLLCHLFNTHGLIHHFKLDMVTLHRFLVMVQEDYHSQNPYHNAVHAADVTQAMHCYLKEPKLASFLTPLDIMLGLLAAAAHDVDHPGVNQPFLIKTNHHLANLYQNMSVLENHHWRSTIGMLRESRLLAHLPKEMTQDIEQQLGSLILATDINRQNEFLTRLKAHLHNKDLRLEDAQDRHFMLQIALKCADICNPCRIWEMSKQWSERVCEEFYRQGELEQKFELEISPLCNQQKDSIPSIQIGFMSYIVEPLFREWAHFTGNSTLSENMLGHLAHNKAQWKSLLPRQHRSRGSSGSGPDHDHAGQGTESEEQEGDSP

CCOc1cc(C)nc(N(CCOC)S(=O)(=O)c2ccc(NCc3c(F)cncc3F)nc2OC)n1 [Compound 1]
IC50 (Human PDE4D3): > 35 µM
IC50 (Human PDE3A1): 18.4 µM
IC50 (Human PDE5A1): 155 µM
IC50 (Human PED9A1): > 200 µM
IC50 (Human PDE7B): 6.27 µM
IC50 (Cav1.2; IC50 (nM), Calcium Channel Cav1 (so in the source), standard protocol): 44800 nM
IC50 (Cav1.2; Ion Channel Extended Protocol IC50 (nM), Period 1st, Cav1.2, extended protocol, 1st period): 21100 nM
IC50 (Cav1.2; Ion Channel Extended Protocol IC50 (nM), Period 2nd, Cav1.2, extended protocol, 2nd period): 10700 nM
IC50 (Cav1.2; Ion Channel Extended Protocol IC50 (nM), Period 3rd, Cav1.2, extended protocol, 3rd period): 5930 nM
